Legend:
[1] = tested on: larvae of the diamondback moth (Plutella xylostella); assay: Plutella xylostella - spray test; type: in vivo; conditions: 48 h, read-out: Efficacy in % after 2 d (mortality)
Description: (§1) The expected efficacy of a given combination of two compounds is calculated as follows (see Colby, S. R., “Calculating Synergistic and antagonistic Responses of Herbicide Combinations”, Weeds 15, pp. 20-22, 1967):
(§2) • X is the efficacy expressed in % mortality of the untreated control for test compound A at a concentration of m ppm respectively m g/ha, • Y is the efficacy expressed in % mortality of the untreated control for test compound B at a concentration of n ppm respectively n g/ha, • E is the efficacy expressed in % mortality of the untreated control using the mixture of A and B at m and n ppm respectively m and n g/ha, then is
(§3) If the observed insecticidal efficacy of the combination is higher than the one calculated as “E”, then the combination of the two compounds is more than additive, i.e., there is a synergistic effect.
Solvent: 7 parts by weight of dimethylformamide
Emulsifier: 2 parts by weight of alkylaryl polyglycolether […]
After the specified period of time, the mortality in % is determined. […] The mortality values determined thus are recalculated using the Colby-formula (see sheet 1).

[2] = tested on: mustard beetle larvae (Phaedon cochleariae); assay: Phaedon cochleariae - spray test; type: in vivo; conditions: 48 h
Description: as §1, §2, §3
Solvent: 78.0 parts by weight of acetone
• 1.5 parts by weight of dimethylformamide Emulsifier: 0.5 parts by weight of alkylaryl polyglycolether To produce a suitable preparation of active compound, 1 part by weight of active compound is mixed with the stated amount of solvent and emulsifier, and the concentrate is diluted with emulsifier-containing water to the desired concentration. To produce a suitable preparation of a spore suspension the spores are diluted with emulsifier-containing water to the desired concentration.
Chinese cabbage (Brassica pekinensis) leaf-disks are sprayed with a preparation of the active ingredient of the desired concentration. Once dry, the leaf disks are infested with mustard beetle larvae (Phaedon cochleariae).
After the specified period of time, mortality in % is determined. 100% means all beetle larvae have been killed and 0% means none of the beetle larvae have been killed. The mortality values determined thus are recalculated using the Colby-formula (see sheet 1).

[3] = read-out: Efficacy in % after 2 d (mortality)

## Cc1cc(C(F)(C(F)(F)F)C(F)(F)F)ccc1NC(=O)c1cccc(Cl)c1C(=O)NC(C)(C)C#N [(I-5)]
[1]; 0.0625 ppm, cabbage leaves sprayed, after 2 d
  mortality at 0.0625 ppm: 0%
[2]; 6 g ai/ha, after 2 d, Table A-2, read-out: Efficacy in % after 2 d (mortality)
  mortality at 6 g/ha: 0%
[2]; 12 g ai/ha, after 2 d, Table A-2, read-out: Efficacy in % after 2 d (mortality)
  mortality at 12 g/ha: 0%
[2]; foliar, 4 g ai/ha, Chinese cabbage leaf disks sprayed, after 2 d, Table A-1, read-out: Efficacy in % after 2 d (mortality)
  mortality at 4 g/ha: 0%

## N#Cc1nn(-c2c(Cl)cc(C(F)(F)F)cc2Cl)c(N)c1[S+]([O-])C(F)(F)F (centres unmarked) [Fipronil, fipronil]
[1]; in Brassica oleracea
  mortality at 0.125 ppm: 45%
[2]; [3]
  mortality at 0.3 g/ha: 0%

## CC[S+]([O-])c1c(C#N)nn(-c2c(Cl)cc(C(F)(F)F)cc2Cl)c1N (centres unmarked) [Ethiprole (II-2), ethiprole]
[2]; [3]
  mortality at 1.2 g/ha: 33%
[2]; in Brassica rapa, foliar, read-out: Efficacy in % after 2 d (mortality)
  mortality at 0.8 g/ha: 50%

Source: US9549557B2, “Insecticidal synergistic combinations of phthaldiamide derivatives and fipronil or ethiprole” (BAYER CROPSCIENCE AKTIENGESELLSCHAFT, priority 2013, dated 2017)
